Test systems include SK-MEL-5 melanoma; NCI/ADR-RES ovarian; MDA-MB-231 breast; CCRF-CEM leukemia; COLO 205 colon; CAKI-1 renal; A498 renal; MOLT-4 leukemia; M14 melanoma; U251 CNS; SF-295 CNS; HL-60(TB) leukemia.
Assay in all cases: NCI anticancer screen, dose series, 48 h

Each structure is given as a SMILES string.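 Protocol summary: plate cells (96-well), add compound at 5 concentrations, incubate 48 h, interpolate endpoints linearly. The concentration for full growth arrest is given as TGI.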 A value given as a limit tells only on which side of the number the result lay.

For the molecule `CC1=NN=C(N)NC1=CC(Sc1ccc(Cl)cc1)c1c(O)ccc2ccccc12` (centres undefined), the TGI was 21.2 µM with SK-MEL-5 melanoma; 71.9 µM in the assay on NCI/ADR-RES ovarian; 56.5 µM with MDA-MB-231 breast; 31.5 µM in the assay with CCRF-CEM leukemia; 36.8 µM in the assay on COLO 205 colon; more than 69.6 µM with CAKI-1 renal. The TGI is 37.5 µM with A498 renal; more than 84.9 µM in the assay with MOLT-4 leukemia; 36.2 µM with M14 melanoma; 76.8 µM in the assay on U251 CNS; more than 57.7 µM in the assay with SF-295 CNS.
Regarding `FC1=C2CCCCCC2SC1(F)F` (centres undefined), the TGI was more than 100 µM in the assay on SK-MEL-5 melanoma; more than 100 µM in the assay on NCI/ADR-RES ovarian; more than 100 µM in the assay with MDA-MB-231 breast; 18.7 µM with CCRF-CEM leukemia; 39.2 µM with COLO 205 colon; 33.9 µM in the assay with HL-60(TB) leukemia. Besides, the TGI in the assay on CAKI-1 renal is more than 100 µM; with MOLT-4 leukemia, 44.1 µM; with M14 melanoma, more than 100 µM; in the assay with SF-295 CNS, more than 100 µM.
On to `CCOC(=O)c1c(N2CCCC2)[nH]c(=O)c(C(c2cccs2)c2c(O)c(C(=O)OCC)c(N3CCCC3)[nH]c2=O)c1O`, for which the TGI in the assay with SK-MEL-5 melanoma, in the assay with NCI/ADR-RES ovarian, in the assay with MDA-MB-231 breast, with CCRF-CEM leukemia, in the assay on COLO 205 colon and with CAKI-1 renal was more than 100 µM throughout. The TGI in the assay with A498 renal, in the assay with MOLT-4 leukemia, in the assay on M14 melanoma, in the assay with U251 CNS and in the assay on SF-295 CNS was more than 100 µM each time.
As to `CC1(C)O[C@@H](CBr)C[C@H](C[C@H]2C[C@@H](O)C[C@@H](CCOCc3ccccc3)O2)O1`, the TGI is more than 100 µM in the assay with SK-MEL-5 melanoma; 41.1 µM with NCI/ADR-RES ovarian; more than 100 µM in the assay with MDA-MB-231 breast; more than 100 µM with CCRF-CEM leukemia; 54.4 µM in the assay with COLO 205 colon; 51.3 µM in the assay with CAKI-1 renal. Moreover, the TGI was 48.6 µM with A498 renal; more than 100 µM with MOLT-4 leukemia; 50.2 µM in the assay on M14 melanoma; more than 100 µM in the assay with U251 CNS; 32.4 µM in the assay with SF-295 CNS.
`COC(=O)c1c(-c2ccccc2)c2sc3ccccc3n2c1N`: the TGI with SK-MEL-5 melanoma is more than 100 µM; in the assay on NCI/ADR-RES ovarian it was more than 100 µM; in the assay on MDA-MB-231 breast it was more than 100 µM; with CCRF-CEM leukemia it was more than 100 µM; in the assay on COLO 205 colon, 97 µM; in the assay with CAKI-1 renal, more than 100 µM. In addition, the TGI in the assay on A498 renal is 91.1 µM; in the assay on M14 melanoma it was more than 100 µM; in the assay on U251 CNS, more than 100 µM; in the assay with SF-295 CNS it was more than 100 µM.
Regarding `CC(C)C(NCc1c(O)ccc2c(-c3ccccc3)cc(=O)oc12)C(=O)O` (centres undefined), the TGI in the assay with SK-MEL-5 melanoma, in the assay on NCI/ADR-RES ovarian, in the assay on MDA-MB-231 breast, with CCRF-CEM leukemia, in the assay with COLO 205 colon and in the assay with HL-60(TB) leukemia was more than 100 µM in each case. Moreover, the TGI with CAKI-1 renal, in the assay on MOLT-4 leukemia, in the assay on M14 melanoma, with U251 CNS and in the assay with SF-295 CNS was more than 100 µM throughout.
As for `O=c1oc2ccc([N+](=O)[O-])cc2c(Nc2ccc3c(c2)S(=O)(=O)c2ccccc2O3)c1[N+](=O)[O-]`, the TGI in the assay with SK-MEL-5 melanoma, with NCI/ADR-RES ovarian, in the assay with MDA-MB-231 breast, in the assay with CCRF-CEM leukemia, in the assay with COLO 205 colon and in the assay on HL-60(TB) leukemia was more than 100 µM in each case. In addition, the TGI with CAKI-1 renal, with MOLT-4 leukemia, in the assay on M14 melanoma, with U251 CNS and in the assay on SF-295 CNS was more than 100 µM in each case.
Take `CCN(CC)CCO/N=C1/C=C2CCC3C(CC[C@@]4(C)C3CC[C@]4(C)O)[C@@]2(C)CC1` (some centres undefined): the TGI with SK-MEL-5 melanoma is 26 µM; with NCI/ADR-RES ovarian, 7.48 µM; in the assay on MDA-MB-231 breast, 36 µM; with CCRF-CEM leukemia, 3.97 µM; in the assay with COLO 205 colon it was 14.6 µM; with CAKI-1 renal it was 20.1 µM. Also, the TGI with A498 renal came to 0.878 µM; in the assay on MOLT-4 leukemia, 10.2 µM; in the assay on M14 melanoma, 23.8 µM; with U251 CNS it was 11.2 µM; with SF-295 CNS it was 8.29 µM.
For `COCCOC(=O)C(C)=[N+]=[N-]`, the TGI with SK-MEL-5 melanoma, with NCI/ADR-RES ovarian, with MDA-MB-231 breast, in the assay on COLO 205 colon, with CAKI-1 renal and in the assay on A498 renal was more than 100 µM each time. In addition, the TGI with U251 CNS and in the assay on SF-295 CNS was more than 100 µM each time.
Regarding `CC(=O)c1sc(=N)n(-c2c(C)cccc2C)c1C`, the TGI in the assay with SK-MEL-5 melanoma, with NCI/ADR-RES ovarian, with MDA-MB-231 breast, with CCRF-CEM leukemia, in the assay on COLO 205 colon and with HL-60(TB) leukemia was more than 100 µM each time. The TGI with A498 renal, in the assay with MOLT-4 leukemia, with M14 melanoma and in the assay on U251 CNS was more than 100 µM throughout.
For the molecule `C=CCN1CN(c2ccccc2)C2(CCN(CCCC3(c4ccc(F)cc4)OCCO3)CC2)C1=O`, the TGI was 29.8 µM in the assay with SK-MEL-5 melanoma; 28.2 µM in the assay on NCI/ADR-RES ovarian; 33.7 µM with MDA-MB-231 breast; 41.4 µM in the assay with CCRF-CEM leukemia; 37.9 µM with COLO 205 colon; 29 µM in the assay on HL-60(TB) leukemia. Also, the TGI in the assay with CAKI-1 renal is 75.6 µM; in the assay on MOLT-4 leukemia it was 39.6 µM; in the assay on M14 melanoma, 30.6 µM; in the assay on U251 CNS it was 29.4 µM; in the assay on SF-295 CNS it was 33 µM.
`N#CCCN(CCN(CCC#N)C(=O)Nc1ccccc1)C(=O)Nc1ccccc1`: the TGI with SK-MEL-5 melanoma, with NCI/ADR-RES ovarian, with MDA-MB-231 breast, in the assay on CCRF-CEM leukemia, in the assay on COLO 205 colon and with HL-60(TB) leukemia was more than 100 µM each time. In addition, the TGI in the assay on A498 renal, with MOLT-4 leukemia, with M14 melanoma, in the assay on U251 CNS and in the assay on SF-295 CNS was more than 100 µM in each case.
As for `O=C1NC2(CCN(CCCC3(c4ccc(F)cc4)OCCO3)CC2)Oc2ccccc21`, the TGI in the assay on SK-MEL-5 melanoma, in the assay on NCI/ADR-RES ovarian, with MDA-MB-231 breast, with CCRF-CEM leukemia, in the assay on COLO 205 colon and with HL-60(TB) leukemia was more than 100 µM each time. Besides, the TGI in the assay with A498 renal is 80.5 µM; in the assay on MOLT-4 leukemia, more than 100 µM; in the assay on M14 melanoma, more than 100 µM; in the assay on U251 CNS it was more than 100 µM; in the assay with SF-295 CNS it was more than 100 µM.
Regarding `CC1=C(C(=O)OC(C)C)C(c2ccccc2C(F)(F)F)C(C(=O)OC(CO[N+](=O)[O-])CO[N+](=O)[O-])=C(C)N1` (centres undefined), the TGI in the assay with SK-MEL-5 melanoma was 11.4 µM; in the assay on NCI/ADR-RES ovarian, 30.6 µM; with MDA-MB-231 breast, 28.2 µM; with CCRF-CEM leukemia, 11.1 µM; in the assay on COLO 205 colon it was 63.5 µM; with HL-60(TB) leukemia, more than 100 µM. Also, the TGI in the assay with CAKI-1 renal turned out to be 38.5 µM; in the assay on MOLT-4 leukemia, 9.79 µM; in the assay with M14 melanoma, 23.9 µM; in the assay with U251 CNS, 29 µM; in the assay on SF-295 CNS it was 21.8 µM.
Turning to `O=C(CSC1=NNC2(C(=O)N1)c1ccccc1-c1ccccc12)NC(=S)Nc1ccccc1`, the TGI in the assay on SK-MEL-5 melanoma, in the assay on NCI/ADR-RES ovarian, in the assay on MDA-MB-231 breast, in the assay with CCRF-CEM leukemia, with COLO 205 colon and in the assay on HL-60(TB) leukemia was more than 10 µM throughout. In addition, the TGI with CAKI-1 renal, with MOLT-4 leukemia, in the assay with M14 melanoma and in the assay on SF-295 CNS was more than 10 µM each time.
`COc1ccc(N=[N+]([O-])c2ccc(OC)cc2)cc1`: the TGI in the assay on SK-MEL-5 melanoma, in the assay on NCI/ADR-RES ovarian, with MDA-MB-231 breast, in the assay with COLO 205 colon, in the assay with CAKI-1 renal and in the assay on A498 renal was more than 100 µM throughout. Besides, the TGI in the assay on MOLT-4 leukemia, in the assay on M14 melanoma, with U251 CNS and with SF-295 CNS was more than 100 µM in each case.
For `CCOP(=O)(OCC)/C(C#N)=C/c1c[nH]c2ccccc12`, the TGI in the assay with SK-MEL-5 melanoma, in the assay with NCI/ADR-RES ovarian, with MDA-MB-231 breast, in the assay with COLO 205 colon, in the assay with HL-60(TB) leukemia and in the assay with CAKI-1 renal was more than 100 µM each time. Besides, the TGI in the assay with A498 renal, with M14 melanoma, with U251 CNS and in the assay on SF-295 CNS was more than 100 µM throughout.
In the case of `COc1ccc(NC2CC(C)N(C(=O)c3ccccc3)O2)cc1` (centres undefined), the TGI with SK-MEL-5 melanoma, in the assay with NCI/ADR-RES ovarian, with MDA-MB-231 breast, in the assay on CCRF-CEM leukemia, in the assay on COLO 205 colon and with HL-60(TB) leukemia was more than 10 µM throughout. For the same molecule, the TGI in the assay with CAKI-1 renal, in the assay with MOLT-4 leukemia, in the assay on M14 melanoma and with SF-295 CNS was more than 10 µM each time.
Consider `Cn1c2ccccc2c(=O)c2[nH]c3ccccc3c21`, for which the TGI in the assay on SK-MEL-5 melanoma, in the assay with NCI/ADR-RES ovarian, in the assay on MDA-MB-231 breast, in the assay on CCRF-CEM leukemia, in the assay on COLO 205 colon and with CAKI-1 renal was more than 100 µM throughout. Besides, the TGI with A498 renal was more than 100 µM; in the assay with MOLT-4 leukemia it was 75.9 µM; with M14 melanoma, more than 100 µM; in the assay with U251 CNS, more than 100 µM; in the assay with SF-295 CNS, more than 100 µM.

The record behind these values is PubChem BioAssay (NCI).
